# In patent US20070093392A1 (priority 2005, published 2007):
# System: gerbils
# Settings: in vivo
structure (smiles),measurement,value
COc1cc(CNC(=O)CCCC/C=C/C(C)C)ccc1O [capsaicin],"Rodent repellent effect, overall",very effective rodent repellent
